Data published in paper PMC9498296, “Inhibitory Activity of Quaternary Isoquinoline Alkaloids on Soluble Epoxide Hydrolase” (Current Issues in Molecular Biology, 2022).

How the values were obtained:
[1] = molecular target: T1, soluble epoxide hydrolase (sEH) (Homo sapiens, UniProt P34913); test: sEH enzymatic assay (fluorometric, PHOME substrate); format: biochemical; details: 37 °C, pH 7.0, tested three times, read-out: Inhibition of Compounds on sEH IC50
T1 construct: purchased Cayman Chemical (Ann Arbor, MI, USA) 10011669
T1 sequence (P34913 1-555): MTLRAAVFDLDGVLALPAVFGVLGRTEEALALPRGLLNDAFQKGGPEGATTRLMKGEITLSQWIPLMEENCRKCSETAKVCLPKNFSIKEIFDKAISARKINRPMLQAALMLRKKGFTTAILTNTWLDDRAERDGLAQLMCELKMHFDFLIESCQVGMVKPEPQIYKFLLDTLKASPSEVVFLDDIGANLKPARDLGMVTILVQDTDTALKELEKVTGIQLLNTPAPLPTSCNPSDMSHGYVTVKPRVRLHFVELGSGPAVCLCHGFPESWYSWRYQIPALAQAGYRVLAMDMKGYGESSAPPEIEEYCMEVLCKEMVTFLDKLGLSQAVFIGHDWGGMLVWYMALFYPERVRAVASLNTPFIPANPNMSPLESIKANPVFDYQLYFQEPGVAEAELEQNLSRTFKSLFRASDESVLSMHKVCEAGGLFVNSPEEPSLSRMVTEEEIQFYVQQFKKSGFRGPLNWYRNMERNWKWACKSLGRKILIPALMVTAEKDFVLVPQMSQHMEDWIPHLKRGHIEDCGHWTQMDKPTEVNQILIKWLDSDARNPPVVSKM
Description: The sEH assay was performed as described previously, with minor modifications. To determine inhibitory activity, 130 μL of the sEH in 25 mM bis-Tris-HCl buffer (pH 7.0) containing 0.1% BSA was added to either 20 μL of inhibitor dissolved in MeOH. Next, 20 μL of PHOME was mixed to each mixture, which was then reacted at 37 °C for sEH hydrolysis. Product formation was monitored fluorometrically at 330 nm excitation and 465 nm emission for approximately 60 min.
sEH inhibition activity was calculated using sEH Inhibition rate (%) = [(ΔC − ΔI)/ΔC] × 100(1) where ΔC and ΔI are the difference of the solvent and compound intensities, respectively, after about one hour and y = y0 + (a × x/b + x)(2) where y0 is the minimum value along the y-axis, a is the difference between the maximum and minimum values, and b is the x value at 50 percent of the “a” value.

[2] = molecular target: T1, soluble epoxide hydrolase (sEH); test: Enzyme kinetics of sEH inhibition (Lineweaver–Burk and Dixon plots); format: biochemical; details: for Binding Mode: Lineweaver–Burk plots, PHOME substrate; for Ki: Table 1, Dixon plots, read-out: Binding Mode (ki, M): ki
Description: Additionally, an enzyme kinetic study was performed to identify how the three compounds bound to this enzyme. The initial velocity (v0) of inhibitor was determined as the rate of enzymatic conversion from substrate to product depending on the concentration of inhibitor at the start of the enzymatic reaction. The results were visualized using classic double-reciprocal Lineweaver–Burk plots. Figure 2B–D indicates one 1/Km and four 1/Vmax values for the three inhibitors, which inhibited the catalytic reaction of sEH with PHOME in a noncompetitive manner.

Q: Which IC50 [1] does the source give for `COc1cc2c(cc1OC)-c1cc3ccc(OC)c(OC)c3c[n+]1CC2` [Compound 1, palmatine] here?
A: 29.6 ± 0.5 µM

Q: And the “Binding Mode” value [2]?
A: Non-competitive

Q: And the Ki [2]?
A: 2.69e-05 M

Q: What does the source list for `COc1cc2c(cc1O)CC[n+]1cc3c(OC)c(OC)ccc3cc1-2` [Compound 3, jatrorrhizine]?
A: IC50 [1]: 27.3 ± 0.4 µM; Binding Mode [2]: Non-competitive; Ki [2]: 4.45e-05 M

Q: For `COc1ccc2cc3[n+](cc2c1OC)CCc1cc2c(cc1-3)OCO2` [Compound 2, berberine], which IC50 [1] is on record?
A: 33.4 ± 0.8 µM

Q: What about the “Binding Mode” value [2] of the same compound?
A: Non-competitive

Q: What about the Ki [2] of the same compound?
A: 4.68e-05 M
